Assay results from patent publication US10800792B2, “Inhibitors of Bruton's tyrosine kinase and method of their use” (JANSSEN PHARMACEUTICA NV, priority 2015, dated 2020).

Target: unphosphorylated-BTK kinase domain (UP-BTK), GST-tagged human BTK (389-659aa) (Homo sapiens (Human), UniProt Q06187)
Test: BTK kinase Lanthascreen binding assay
Settings: unphosphorylated-BTK kinase domain, 50 nM Tracer 236, 60 minutes; pIC50 = negative log of the IC50 in molar
Method in brief: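 A fluorescent tracer is bound to unphosphorylated BTK; test compound is added to compete it off; the Lanthascreen signal is read and IC50 is fitted, then reported as its negative log in molar.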

unphosphorylated-BTK kinase domain (UP-BTK), GST-tagged human BTK (389-659aa), sequence (Q06187 389-659): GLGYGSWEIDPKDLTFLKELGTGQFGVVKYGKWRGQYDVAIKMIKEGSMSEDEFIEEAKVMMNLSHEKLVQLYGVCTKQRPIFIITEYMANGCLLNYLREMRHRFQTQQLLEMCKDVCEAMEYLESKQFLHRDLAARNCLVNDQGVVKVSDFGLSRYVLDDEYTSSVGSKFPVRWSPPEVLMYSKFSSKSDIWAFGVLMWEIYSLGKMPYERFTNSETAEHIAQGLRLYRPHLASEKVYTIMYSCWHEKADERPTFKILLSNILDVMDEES

SMILES: CN(C)C/C=C/C(=O)N1CC[C@@H](NC(=O)c2sc3nccc4c3c2NC(=O)N4c2ccc(Oc3ccccc3)cc2)C1 [Example 440, (R,E)-N-(1-(4-(Dimethylamino)but-2-enoyl)pyrrolidin-3-yl)-4-oxo-5-(4-phenoxyphenyl)-4,5-dihydro-3H-1-thia-3,5,8-triazaacenaphthylene-2-carboxamide]
- BTK_I_binding pIC50: 7.6

SMILES: C=CC(=O)N1CC[C@@H](NC(=O)c2sc3nccc4c3c2NC(=O)N4c2ccc(Oc3ccccc3)cc2)C1 [Example 443, (R)—N-(1-Acryloylpyrrolidin-3-yl)-4-oxo-5-(4-phenoxyphenyl)-4,5-dihydro-3H-1-thia-3,5,8-triazaacenaphthylene-2-carboxamide]
- BTK_I_binding pIC50: 7.7

SMILES: C=CC(=O)N1CCC[C@@H](NC(=O)c2sc3nccc4c3c2NC(=O)N4c2ccc(C(C)C)cc2C)C1 [Example 444, (R)—N-(1-Acryloylpiperidin-3-yl)-5-(4-isopropyl-2-methylphenyl)-4-oxo-4,5-dihydro-3H-1-thia-3,5,8-triazaacenaphthylene-2-carboxamide]
- BTK_I_binding pIC50: 7.2

SMILES: C=CC(=O)N1CC[C@@H](NC(=O)c2sc3nccc4c3c2NC(=O)N4c2ccc(C(C)C)cc2C)C1 [Example 445, (R)—N-(1-Acryloylpyrrolidin-3-yl)-5-(4-isopropyl-2-methylphenyl)-4-oxo-4,5-dihydro-3H-1-thia-3,5,8-triazaacenaphthylene-2-carboxamide]
- BTK_I_binding pIC50: 6.7

SMILES: Cc1cc(C(C)C)ccc1N1C(=O)Nc2c(C(=O)N[C@@H]3CCCNC3)sc3nccc1c23 [Example 446, (R)-5-(4-Isopropyl-2-methylphenyl)-4-oxo-N-(piperidin-3-yl)-4,5-dihydro-3H-1-thia-3,5,8-triazaacenaphthylene-2-carboxamide]
- BTK_I_binding pIC50: 5.8

SMILES: Cc1cc(C(C)C)ccc1N1C(=O)Nc2c(C(=O)N[C@@H]3CCCN(C)C3)sc3nccc1c23 [Example 447, (R)-5-(4-Isopropyl-2-methylphenyl)-N-(1-methylpiperidin-3-yl)-4-oxo-4,5-dihydro-3H-1-thia-3,5,8-triazaacenaphthylene-2-carboxamide]
- BTK_I_binding pIC50: 5.6

SMILES: C=CC(=O)N1CCC(CNC(=O)c2sc3nccc4c3c2NC(=O)N4c2ccc(Oc3ccccc3)cc2)C1 (stereo not drawn) [Example 452, N-((1-Acryloylpyrrolidin-3-yl)methyl)-4-oxo-5-(4-phenoxyphenyl)-4,5-dihydro-3H-1-thia-3,5,8-triazaacenaphthylene-2-carboxamide]
- BTK_I_binding pIC50: 7.0

SMILES: O=C(NCC1CCNC1)c1sc2nccc3c2c1NC(=O)N3c1ccc(Oc2ccccc2)cc1 (stereo not drawn) [Example 453, 4-Oxo-5-(4-phenoxyphenyl)-N-(pyrrolidin-3-ylmethyl)-4,5-dihydro-3H-1-thia-3,5,8-triazaacenaphthylene-2-carboxamide]
- BTK_I_binding pIC50: 6.4

SMILES: O=C(N[C@@H]1CCCN(C(=O)n2ccnc2)C1)c1sc2nccc3c2c1NC(=O)N3c1ccc2c(c1)OC(F)(F)O2 [Example 454, (R)—N-(1-(1H-Imidazole-1-carbonyl)piperidin-3-yl)-5-(2,2-difluorobenzo[d][1.3]dioxol-5-yl)-4-oxo-4,5-dihydro-3H-1-thia-3,5,8-triazaacenaphthylene-2-carboxamide]
- BTK_I_binding pIC50: <5

SMILES: C=CC(=O)N1CCC[C@@H](NC(=O)c2sc3nccc4c3c2NC(=O)N4c2ccc(OC)c(C(F)(F)F)c2)C1 [Example 455, (R)—N-(1-Acryloylpiperidin-3-yl)-5-(4-methoxy-3-(trifluoromethyl)phenyl)-4-oxo-4,5-dihydro-3H-1-thia-3,5,8-triazaacenaphthylene-2-carboxamide]
- BTK_I_binding pIC50: <5

SMILES: C=CC(=O)N1CCC[C@@H](NC(=O)c2sc3nccc4c3c2NC(=O)N4c2ccc(OC3CCC3)cc2C)C1 [Example 456, (R)—N-(1-Acryloylpiperidin-3-yl)-5-(4-cyclobutoxy-2-methylphenyl)-4-oxo-4,5-dihydro-3H-1-thia-3,5,8-triazaacenaphthylene-2-carboxamide]
- BTK_I_binding pIC50: 7.7

SMILES: C=CC(=O)N1CCC[C@@H](NC(=O)c2sc3nccc4c3c2NC(=O)N4c2ccc(OC3CCC3)cc2)C1 [Example 457, (R)—N-(1-Acryloylpiperidin-3-yl)-5-(4-cyclobutoxyphenyl)-4-oxo-4,5-dihydro-3H-1-thia-3,5,8-triazaacenaphthylene-2-carboxamide]
- BTK_I_binding pIC50: 7.6

SMILES: O=C(NC1CCCNC1=O)c1sc2nccc3c2c1NC(=O)N3c1ccc(Oc2ccccc2)cc1 (stereo not drawn) [Example 458, 4-Oxo-N-(2-oxopiperidin-3-yl)-5-(4-phenoxyphenyl)-4,5-dihydro-3H-1-thia-3,5,8-triazaacenaphthylene-2-carboxamide]
- BTK_I_binding pIC50: 6.2

SMILES: COc1ccc(N2C(=O)Nc3c(C(=O)N[C@@H]4CCCNC4)sc4nccc2c34)cc1C(F)(F)F [Example 459, (R)-5-(4-Methoxy-3-(trifluoromethyl)phenyl)-4-oxo-N-(piperidin-3-yl)-4,5-dihydro-3H-1-thia-3,5,8-triazaacenaphthylene-2-carboxamide]
- BTK_I_binding pIC50: <5

SMILES: Cc1ccc(N2C(=O)Nc3c(C(=O)N[C@@H]4CCCNC4)sc4nccc2c34)cc1Cl [Example 460, (R)-5-(3-Chloro-4-methylphenyl)-4-oxo-N-(piperidin-3-yl)-4,5-dihydro-3H-1-thia-3,5,8-triazaacenaphthylene-2-carboxamide]
- BTK_I_binding pIC50: 5.3

SMILES: Cc1ccc(N2C(=O)Nc3c(C(=O)N[C@@H]4CCCNC4)sc4nccc2c34)cc1C(F)(F)F [Example 461, (R)-5-(4-Methyl-3-(trifluoromethyl)phenyl)-4-oxo-N-(piperidin-3-yl)-4,5-dihydro-3H-1-thia-3,5,8-triazaacenaphthylene-2-carboxamide]
- BTK_I_binding pIC50: 5.0

SMILES: O=C(NCC1CCCO1)c1sc2nccc3c2c1NC(=O)N3c1ccc(Oc2ccccc2)cc1 (stereo not drawn) [Example 462, 4-Oxo-5-(4-phenoxyphenyl)-N-((tetrahydrofuran-2-yl)methyl)-4,5-dihydro-3H-1-thia-3,5,8-triazaacenaphthylene-2-carboxamide]
- BTK_I_binding pIC50: 6.4

SMILES: C=CC(=O)N1C[C@H](NC(=O)c2sc3nccc4c3c2NC(=O)N4c2ccc(Oc3ccccc3)cc2)[C@@H](O)C1 [Example 463, N-((3S,4S)-1-Acryloyl-4-hydroxypyrrolidin-3-yl)-4-oxo-5-(4-phenoxyphenyl)-4,5-dihydro-3H-1-thia-3,5,8-triazaacenaphthylene-2-carboxamide]
- BTK_I_binding pIC50: 7.9

SMILES: O=C(N[C@H]1CNC[C@@H]1O)c1sc2nccc3c2c1NC(=O)N3c1ccc(Oc2ccccc2)cc1 [Example 464, N-((3S,4S)-4-Hydroxypyrrolidin-3-yl)-4-oxo-5-(4-phenoxyphenyl)-4,5-dihydro-3H-1-thia-3,5,8-triazaacenaphthylene-2-carboxamide]
- BTK_I_binding pIC50: 6.8

SMILES: O=C(N[C@@H]1CCCNC1)c1sc2nccc3c2c1NC(=O)N3c1cccc(Cc2ccccc2)c1 [Example 465, (R)-5-(3-Benzylphenyl)-4-oxo-N-(piperidin-3-yl)-4,5-dihydro-3H-1-thia-3,5,8-triazaacenaphthylene-2-carboxamide]
- BTK_I_binding pIC50: 6.2

SMILES: O=C(N[C@@H]1CCCNC1)c1sc2nccc3c2c1NC(=O)N3c1cccc(Oc2ccccc2)c1 [Example 466, (R)-4-Oxo-5-(3-phenoxyphenyl)-N-(piperidin-3-yl)-4,5-dihydro-3H-1-thia-3,5,8-triazaacenaphthylene-2-carboxamide]
- BTK_I_binding pIC50: 6.7

SMILES: C=CC(=O)N1CC(NC(=O)c2sc3nccc4c3c2NC(=O)N4c2ccc(Oc3ccccc3)cc2C)C1 [Example 496, N-(1-Acryloylazetidin-3-yl)-5-(*S)-(2-methyl-4-phenoxyphenyl)-4-oxo-4,5-dihydro-3H-1-thia-3,5,8-triazaacenaphthylene-2-carboxamide]
- BTK_I_binding pIC50: 7.4

SMILES: C=CC(=O)N1CCC[C@@H](NC(=O)c2sc3nccc4c3c2NC(=O)N4c2ncc(Oc3ccccc3)cc2C)C1 [Example 497, (R)—N-(1-Acryloylpiperidin-3-yl)-5-(3-methyl-5-phenoxypyridin-2-yl)-4-oxo-4,5-dihydro-3H-1-thia-3,5,8-triazaacenaphthylene-2-carboxamide]
- BTK_I_binding pIC50: 7.9

SMILES: C=CC(=O)N1CCC[C@@H](NC(=O)c2sc3nccc4c3c2NC(=O)N4c2cccc(-c3cccc(F)c3F)c2)C1 [Example 498, (R)—N-(1-Acryloylpiperidin-3-yl)-5-(2′,3′-difluoro-[1,1′-biphenyl]-3-yl)-4-oxo-4,5-dihydro-3H-1-thia-3,5,8-triazaacenaphthylene-2-carboxamide]
- BTK_I_binding pIC50: 7.8

SMILES: C=CC(=O)N1CCC[C@@H](NC(=O)c2sc3nccc4c3c2NC(=O)N4c2cccc(-c3cccc(F)c3)c2)C1 [Example 500, (R)—N-(1-Acryloylpiperidin-3-yl)-5-(3′-fluoro-[1,1′-biphenyl]-3-yl)-4-oxo-4,5-dihydro-3H-1-thia-3,5,8-triazaacenaphthylene-2-carboxamide]
- BTK_I_binding pIC50: 8.1

SMILES: C=CC(=O)N1CCC[C@@H](NC(=O)c2sc3nccc4c3c2NC(=O)N4c2cccc(-c3ccccc3C)c2)C1 [Example 504, (R)—N-(1-Acryloylpiperidin-3-yl)-5-(2′-methyl-[1,1′-biphenyl]-3-yl)-4-oxo-4,5-dihydro-3H-1-thia-3,5,8-triazaacenaphthylene-2-carboxamide]
- BTK_I_binding pIC50: 8.0

SMILES: C=CC(=O)N1CCC[C@@H](NC(=O)c2sc3nccc4c3c2NC(=O)N4c2ccc(Oc3ccccc3)nc2)C1 [Example 506, (R)—N-(1-Acryloylpiperidin-3-yl)-4-oxo-5-(6-phenoxypyridin-3-yl)-4,5-dihydro-3H-1-thia-3,5,8-triazaacenaphthylene-2-carboxamide]
- BTK_I_binding pIC50: 7.9
